Results from US4698422A, “Triphos and tetraphos gold compounds and ligands” (SmithKline Beckman Corporation, priority 1986, dated 1987).
Several values for one entry are separate records, joined by “and”; a condition that tells them apart may be missing. Equal values may be shown once.

What was measured:
P388 leukemia = assay: in vivo ip P388 lymphocytic leukemia model; design: species or system B6D2F1 mice; conditions: maximum increase in lifespan, mice bearing ip P388 leukemia; slashes = separate experiments; ip Days 1 through 5; active if ≥25 percent
Experimental: This tumor system is widely accepted as an antitumor agent screening tool because it is sensitive to virtually all of the clinically active antineoplastic agents; quantitative and reproducible; amenable for large-scale screening; and predictive for activity in other animal tumor models.
10^6 P388 leukemia cells are inoculated ip in B6D2F1 mice. Twenty-four hours later, if the tumor inoculum proves to be free of bacterial contamination (as determined by 24 hours incubation in thioglycollate broth), animals are randomized into groups of 6 and housed in shoebox cages. The compound to be evaluated is dissolved in a minimal volume of either N,N-dimethylacetamide (DMA) or 95% ethanol (depending upon solubility). An equal volume of saline is added; if the drug comes out of solution an equal volume of polyethoxylated castor oil is added and then saline qs to a concentration such that the desired dose is delivered in 0.5 ml. The final concentration of DMA, ethanol and polyethoxylated castor oil is […]. Dilutions for lower doses are made with saline so there is a decreasing proportion of organic solvents in the vehicle with decreasing dosage. […] Fomulations are prepared immediately prior to injection. The compound is administered ip on Days 1 through 5 (i.e. treatment is initiated 24 hrs after tumor inoculation). Each experiment includes three groups of 6 animals as untreated controls and animals treated with a positive control, cisplatin, at two dose levels. Animals are weighed as a group on Days 1, 5 and 9 and average weight change (Δwt.) is used as a reflection of toxicity. Each experiment also includes an inoculum titration--groups of 8 mice inoculated ip with 10^5 to […] P388 leukemia cells. The titration is used to calculate cell kill achieved by treatment with drugs. Animals are monitored daily for mortality and experiments are terminated after 45 days. The endpoint is median survival time (MST) and increase in lifespan (ILS) which is the percentage of increase in MST relative to untreated controls.

[1] = maximally tolerated dose in mice, ip, P388 regimen (Table A); assay type: in vivo, mouse; conditions: mouse, in vivo, ip; maximally tolerated dose for B6D2F female mice, ipqDxs regimen (Days 1 through 5)
Experimental: (§1) 10^6 P388 leukemia cells are inoculated ip in B6D2F1 mice. Twenty-four hours later, if the tumor inoculum proves to be free of bacterial contamination (as determined by 24 hours incubation in thioglycollate broth), animals are randomized into groups of 6 and housed in shoebox cages. The compound to be evaluated is dissolved in a minimal volume of either N,N-dimethylacetamide (DMA) or 95% ethanol (depending upon solubility). An equal volume of saline is added; if the drug comes out of solution an equal volume of polyethoxylated castor oil is added and then saline qs to a concentration such that the desired dose is delivered in 0.5 ml. The final concentration of DMA, ethanol and polyethoxylated castor oil is […]. Dilutions for lower doses are made with saline so there is a decreasing proportion of organic solvents in the vehicle with decreasing dosage. These vehicles provide soluble formulations (or suspensions). Fomulations are prepared immediately prior to injection. The compound is administered ip on Days 1 through 5 (i.e. treatment is initiated 24 hrs after tumor inoculation). Each experiment includes three groups of 6 animals as untreated controls and animals treated with a positive control, cisplatin, at two dose levels. Animals are weighed as a group on Days 1, 5 and 9 and average weight change (Δwt.) is used as a reflection of toxicity. Each experiment also includes an inoculum titration--groups of 8 mice inoculated ip with 10^5 to […] P388 leukemia cells. The titration is used to calculate cell kill achieved by treatment with drugs. Animals are monitored daily for mortality and experiments are terminated after 45 days. The endpoint is median survival time (MST) and increase in lifespan (ILS) which is the percentage of increase in MST relative to untreated controls. Untreated controls inoculated ip with 10^6 P388 leukemia cells generally survive for a median of 9 to 11 days. A drug is considered active if it produces ≥25 percent ILS.
(§2) ^(a) maximally tolerated dose for B6D2F female mice on an ipqDxs

B6D2F female mice [2] = assay: as above; assay type: in vivo, mouse; conditions: maximally tolerated dose for B6D2F female mice, ipqDxs regimen (Days 1 through 5)
Experimental: as §1, §2

B6D2F1 mice = assay: maximally tolerated dose in mice, ip qD × 10, B16 (Table C); assay type: in vivo, mouse; conditions: maximally tolerated dose for B6D2F1 mice
Experimental: (§3) In this system, groups of eight B6D2F1 mice are inoculated ip with 0.5 ml of a 10% (w:v) brei of B15 melanoma prepared from pooled sc tumors excised at 14-21 days from […] donor mice. Daily treatment is begun 24 hours after tumor implantation and is continued daily for ten (10) days. The route of drug administration is ip. The mice are monitored daily for survival for sixty (60) days. Antitumor activity is assessed by prolongation of median survival time. An ILS of ≥25% indicates activity in this tumor model.
^(b) maximally tolerated dose for B6D2F1 mice on an ip qD .times

[3] = system: M5076 reticulum cell sarcoma; assay: intraperitoneally implanted M5076 reticulum cell sarcoma in mice; assay type: in vivo, B6D2F female mice; conditions: maximum increase in lifespan, mice bearing ip M5076; ip daily for ten days; active if ≥25% ILS
Experimental: (§4) Another chemosensitive tumor model is intraperitoneally (ip) implanted M5076 reticulum cell sarcoma in mice. In this system B6D2F female mice are inoculated with 0.5 ml of a 10 percent (w:v) brei of M5076 prepared from pooled subcutaneous (sc) tumors excised at about 21 days from C57B1/6 donors. Drugs are administered ip. Daily treatment is begun 24 hours after implantation and is continued for ten days. The treatment regimen for M5076 is more prolonged than for P388 because of the slower growth rate and longer control survival time of the M5076 tumor. A drug is considered active in this tumor model if it produces ≥25% ILS.

B6D2F female mice [4] = assay: maximally tolerated dose in mice, ip qD × 10, M5076 (Table B); assay type: in vivo, mouse; conditions: maximally tolerated dose for B6D2F female mice
Experimental: as §4
^(b) maximally tolerated dose for B6D2F female mice on an ip qD

B16 melanoma = assay: in vivo ip B16 melanoma assay; design: species or system B6D2F1 mice; conditions: maximum increase in lifespan, mice bearing ip B16 melanoma; slash = separate experiments; ip daily for ten days; active if ≥25%
Experimental: as §3

| Molecule | ILS (max) (P388 leukemia) | MTD [1] | MTD (B6D2F female mice [2]) | further results |
| --- | --- | --- | --- | --- |
| c1ccc(P(CCP(c2ccccc2)c2ccccc2)CCP(c2ccccc2)c2ccccc2)cc1 [Compound 6, bis(2-diphenylphosphinoethyl)phenylphosphine] | 80% and 50% | 32 mg/kg | – | – |
| c1ccc(P(CCP(CCP(c2ccccc2)c2ccccc2)CCP(c2ccccc2)c2ccccc2)c2ccccc2)cc1 [Compound 7, tris(diphenylphosphinoethyl)phosphine] | 35% and 30% | 64 mg/kg | – | – |
| c1ccc(P(CCP(CCP(c2ccccc2)c2ccccc2)c2ccccc2)CCP(c2ccccc2)c2ccccc2)cc1 (stereo not drawn) [Compound 8, 1,1,4,7,10,10-hexaphenyl-1,4,7,10-tetraphosphodecane] | 25% and 40% | 64 mg/kg | – | – |
| CC(CP(c1ccccc1)c1ccccc1)(CP(c1ccccc1)c1ccccc1)CP(c1ccccc1)c1ccccc1 [Compound 9, μ-[1,1,1-Tris(diphenylphosphinomethyl)ethane]] | 45% and 25% | 128 mg/kg | – | – |
| μ-[1,1,1-Tris(diphenylphosphinomethyl)ethane]tris(chlorogold) [Compound 5] | 40% and 30% | – | 20 mg/kg | – |
| μ-[1,1,4,7,10,10-Hexaphenyl-1,4,7,10-tetraphosphodecane]tetrakis(1-thio- β-D-glucopyranosato-S)gold [Compound 4] | 100% and 55% | – | 8 mg/kg | – |
| μ-[1,1,4,7,10,10-Hexaphenyl-1,4,7,10-tetraphosphodecane]tetrakis(chlorogold) [Compound 3] | – | – | 12 mg/kg | MTD (B6D2F1 mice): 6 mg/kg; ILS (MAX) [3]: 96%; MTD (B6D2F female mice [4]): 8 mg/kg; ILS (B16 melanoma): 30% and 51% |
| μ-[Bis(2-diphenylphosphinoethyl)phenylphosphine]tris(chlorogold) [Compound 1] | 30% and 40% | – | 8 mg/kg | – |
| μ-[Tris(2-diphenylphosphinoethyl)phosphine]tetrakis(chlorogold) [Compound 2] | 45% | – | 8 mg/kg | – |
